Data reported in patent US20130150350A1, “Derivatives of 1-Phenyl-1,5-Dihydro-Benzo[B] [1,4]Diazepine-2,4-Dione as Inhibitors of HIV Replication” (BOEHRINGER INGELHEIM INTERNATIONAL GMBH, priority 2010, published 2013).
pEC50, pIC50: −log10 of the molar value. Like-named read-outs stand apart in the source and are kept apart here.

Key:
[1] = molecular target: T1, HIV-1NL4-3 CA-NC protein (SEQ ID NO: 2) (Human immunodeficiency virus type 1 group M subtype B, UniProt P12493, G226D); test: Immobilized capsid assembly assay (CAA); format: biochemical; details: for IC50: concentration for 50% inhibition of capsid assembly, 2 μM CA-NC, 2 hours at room temperature, read-out: IC50 (μM) CAA
T1 construct: HIV-1NL4-3 CA-NC, Gag residues 133-432; initiator Met (start codon introduced by PCR primer) (N); made in house; host or cells: E. coli BL21(DE3), pET-11a
Source text: (§1) SEQ ID NO: 1 is a nucleic acid of 900 base pairs encoding HIV-1NL4-3 CA-NC, Gag residues 133-432, having the CA G94D mutation (SEQ ID NO: 2). SEQ ID NO: 1, is transferred to pET-11a expression vector (Novagen™) by PCR amplification using primers that introduce an NdeI site and a start codon at the 5′-end and a BamHI site and a stop codon at the 3′-end. Resistance mutations in CA were identified by passage of the HIV-1 virus in the presence of compounds of the invention, namely V27A/I, K30R, S33G, V36T, T58I, G61E, G208A/R, E213G, K30R/T58I, K30R/G208R, V36T/G208R, S33G/T58I, S33G/G208R and T58I/G208R, all numbered with reference to SEQ ID NO: 2,. These resistance mutations may be introduced in the expression vector using the QuikChange® II Site-Directed Mutagenesis Kit (Stratagene) according to the manufacturer's instructions. SEQ ID NOS: 2 is expressed in the BL21(DE3) E. coli cells (Novagen™). Briefly, LB media is inoculated with overnight pre-cultures and grown at 37° C. until mid log-phase (Abs600 ˜0.6), protein expression is induced by addition of 0.5-1 mM isopropyl-β,D-thiogalactopyranoside (IPTG) and carried out for 4 to 6 hours at 30° C. Cells are harvested by centrifugation and pellets are stored at −80° C. until purification.
(§2) Purification of CA-NC (SEQ ID NO: 2) is as follows: 5 to 10 g of cell paste are lysed by sonication in 40 ml of Buffer A [20 mM Tris pH 7.5; 1 μM ZnCl2; 10 mM β-mercaptoethanol] supplemented with 0.5M NaCl and Complete EDTA-free® protease inhibitors tablets (Roche). Nucleic acids and cell debris are removed by adding 0.11 volumes of 0.2 M ammonium sulfate and an equivalent volume of 10% poly-(ethyleneimine) pH 8.0, stirring the sample for 20 minutes at 4° C., followed by centrifugation at 30 000×g for 20 minutes. SEQ ID NO: 2 is recovered from the supernatant by adding 0.35 volumes of saturated ammonium sulfate solution followed by centrifugation at 10 000×g for 15 minutes. The pellet is dissolved in 10 ml of Buffer A+0.1 M NaCl and dialyzed overnight in the same buffer but at 0.05 M NaCl (Dialysis Buffer). The sample is then cleared by centrifugation and passed on a 1-ml HiTrapTMSP HP column (GE Healthcare) pre-equilibrated with Dialysis Buffer. SEQ ID NO: 2 is eluted with Buffer A+0.5 M NaCl, fractions containing the protein are pooled; concentration determination is done by Abs280 using the calculated molar extinction coefficient (E=40220 M-1 cm-1).
Reacti-Bind Neutravidin Coated black 384-well plates (Pierce Cat#15402) are washed with 80 μl/well of Buffer A (50 mM Tris pH 8.0; 350 mM NaCl; 10 μM ZnSO4; 0.0025% CHAPS (w/v); 50 μg/ml bovine serum albumin (BSA); 1 mM DTT). Immobilization of a 5′-end biotin labeled (TG)25 oligonucleotide (Integrated DNA Technology Inc.) is carried out by adding 50 μl/well of a 25 nM solution of oligonucleotide in Buffer A+5 mg/ml of BSA (Sigma™) and incubating overnight. Unbound material is removed by two 80 μl/well washes with Buffer A. Assembly reactions are performed in 60 μl/well reactions comprising test compound, 100 nM of 5′-end fluorescein labeled (TG)25 oligonucleotide (Integrated DNA Technology Inc.) and 2 μM of CA-NC protein (SEQ ID NO: 2), using Buffer A+1% DMSO. Assembly reactions are incubated for 2 hours at room temperature and non-immobilized material is removed by two successive 80 μl/well washes with Buffer A. Finally, 80 μl/well of Buffer A+0.1% sodium dodecyl sulfate (SDS) is added and incubated for 15 minutes prior to quantification of captured fluorescence on a Victor2 plate reader (PerkinElmer Life Sciences) equipped with fluorescein excitation and emission filters using the standard manufacturer's settings for fluorescein fluorescence. The amount of captured fluorescence is considered to be proportional to the level of assembly. The IC50 values for each compound are generated by fitting inhibition curves from ten-point dilution series to the following equation: […]

[2] = molecular target: T2, assembled HIV-1 capsid complexes (CA-NC protein, SEQ ID NO: 2) (Human immunodeficiency virus type 1 group M subtype B, UniProt P12493, G226D); test: Capsid disassembly assay (CDA); format: biochemical; details: for IC50: concentration for 50% disassembly of assembled complexes, 2 hours at room temperature, read-out: IC50 (μM) CDA
T2 construct: HIV-1NL4-3 CA-NC, Gag residues 133-432; initiator Met (start codon introduced by PCR primer) (N); made in house; host or cells: E. coli BL21(DE3), pET-11a
Source text: The GAG polyprotein is the major structural protein required for HIV viral particle assembly. During the maturation process, Gag is cleaved by the viral protease and releases its four major proteins, matrix (MA), capsid (CA), nucleocapside (NC) and p6, as well as two spacer peptides termed SP1 and SP2. This triggers profound morphological changes to the viral particle as CA will reassemble to form the viral core, a structure that is essential for viral infectivity.
as §1, §2
Reacti-Bind Neutravidin Coated black 384-well plates (Pierce Cat#15402) are washed with 80 μl/well of Buffer A (50 mM Tris pH 8.0; 350 mM NaCl; 10 μM ZnSO4; 0.0025% CHAPS (w/v); 50 μg/ml BSA; 1 mM DTT). Immobilization of a 5′-end biotin labeled (TG)25 oligonucleotide (Integrated DNA Technology Inc.) is carried out by adding 50 μl/well of a 25 nM solution of oligonucleotide in Buffer A+5 mg/ml BSA and incubating overnight. Unbound material is removed by two 80 μl/well washes with Buffer A. Assembly reactions are performed in 60 μl/well reactions comprising 100 nM of 5′-end fluorescein labeled (TG)25 oligonucleotide (Integrated DNA Technology Inc.) and 2 μM of CA-NC protein (SEQ ID NO: 2), using Buffer A. Assembly reactions are incubated for 2 hours at room temperature and non-immobilized material is removed by washing 80 μl/well with Buffer A. Test compounds, serially diluted in Buffer A+0.125% dimethyl sulfoxide (DMSO), are added to the wells (60 μl/well) and incubated at room temperature for 2 hours. […]

[3] = system: HIV-1 replication in C8166 LTRluc cells; test: C8166 HIV-1 luciferase assay; format: cell-based; details: Human immunodeficiency virus 1, 72 h, inhibition of HIV-1 replication, moi 0.005, 3 days
Description: The assay used to measure inhibition of HIV replication is as described in WO 2004/050643, pages 73-75, herein incorporated by reference, with the following modifications:
Serial dilutions of HIV-1 inhibitors are prepared in complete media from DMSO stock solutions. Eleven serial dilutions of desired concentration are prepared in a 1 mL deep well titer plate (96 wells). The 12th well contains complete media with no inhibitor and serves as the positive control. All samples contain the same concentration of DMSO 0.1% DMSO). Inhibitor is added, to triplicate wells, of a 96 well tissue culture treated clear view black microtiter plate (Corning Costar catalogue #3904). The total volume per well is 200 μL of media containing the cells and inhibitor. The last row is reserved for uninfected C8166 LTRluc cells to serve as the background blank control and the first row is media alone.
Count C8166 LTRluc cells and place in a minimal volume of complete RPMI 1640 in a tissue culture flask (ex. 30×10^6 cells in 10 mL media/25 cm^2 flask). Infect cells with HIV-1 at a moi of 0.005. Incubate cells for 1.5 hours at 37° C. on a rotating rack in a 5% CO2 incubator. Resuspend cells in complete RPMI to give a final concentration of 25,000-cells/well. Add cells to wells of 96 well microtiter plate containing inhibitors. Add 25,000 uninfected C8166—LTRluc cells/well in 200 μL complete RPMI to last row for background control. Incubate cells at 37° C. in 5% CO2 incubator for 3 days.

Compound | pIC50 [1] | pIC50 [2] | pEC50 [3] | IC50 [1] | IC50 [2]
CCN1C(=O)C2(CCc3ccccc32)C(=O)N(c2ccccc2)c2cc(C(F)(F)F)ccc21 (racemic) [Compound 7001] | 6.14 | 6.34 | 5.82 |  | 
CCN1C(=O)/C(=C/NCCOC)C(=O)N(c2ccccc2)c2cc(Cl)ccc21 [Compound 1004] |  |  | 4.90 | 0.47 µM | 0.38 µM
COCCN/C=C1/C(=O)N(C)c2ccc(C(F)(F)F)cc2N(c2ccccc2)C1=O [Compound 1011] | 6.05 | 6.07 | 4.92 |  | 
CCN1C(=O)C(c2ccccc2)C(=O)N(c2ccccc2)c2cc(C(F)(F)F)ccc21 (centres unmarked) [Compound 2002] | 6.14 | 6.32 | 5.59 |  | 
CCN1C(=O)C(c2ccccc2)C(=O)N(c2cccs2)c2cc(C(F)(F)F)ccc21 (centres unmarked) [Compound 2003] | 6.09 | 6.41 | 5.60 |  | 
CN1C(=O)C(c2ccc(O)cc2)C(=O)N(c2ccccc2)c2cc(C(F)(F)F)ccc21 (centres unmarked) [Compound 2009] | 6.04 | 6.85 | 6.05 |  | 
CCN1C(=O)C(c2ccc(CN3CCNCC3)cc2)C(=O)N(c2ccccc2)c2cc(C(F)(F)F)ccc21 (centres unmarked) [Compound 2018] | 6.28 | 6.55 | 6.10 |  | 
CCN1C(=O)C(c2ccc(-c3cccnc3)cc2)C(=O)N(c2ccccc2)c2cc(C(F)(F)F)ccc21 (centres unmarked) [Compound 2030] | 6.41 | 6.49 | 6.40 |  | 
CCN1C(=O)C(c2cccc(-c3cccnc3)c2O)C(=O)N(c2ccccc2)c2cc(C(F)(F)F)ccc21 (centres unmarked) [Compound 2035] | 5.89 |  | 5.24 |  | 
CCCn1cc(-c2cc(C3C(=O)N(CC)c4ccc(C(F)(F)F)cc4N(c4ccccc4)C3=O)cc(OC)c2O)cn1 (centres unmarked) [Compound 2059] | 6.35 | 6.80 | 7.15 |  | 
CCN1C(=O)C(c2cccnc2)C(=O)N(c2ccccc2)c2cc(C(F)(F)F)ccc21 (centres unmarked) [Compound 2076] | 5.80 |  | 5.39 |  | 
CCN1C(=O)N(c2ccccc2)C(=O)N(c2ccccc2)c2cc(C(F)(F)F)ccc21 [Compound 3011] |  |  | 6.22 | 0.63 µM | 0.18 µM
CCN1C(=O)N(c2ccc(CO)cc2)C(=O)N(c2ccccc2)c2cc(C(F)(F)F)ccc21 [Compound 3027] |  |  | 6.15 |  | 0.1 µM
CCN1C(=O)N(c2ccc(C(=O)O)cc2)C(=O)N(c2ccccc2)c2cc(C(F)(F)F)ccc21 [Compound 3034] |  |  | 5.59 |  | 0.27 µM
CCN1C(=O)N(c2ccc(C(=O)NC[C@@H]3CCCN3CC)cc2)C(=O)N(c2ccccc2)c2cc(C(F)(F)F)ccc21 [Compound 3055] |  |  | 6.40 |  | 0.13 µM
CN1c2ccc(Cl)cc2N(c2ccccc2)C(=O)c2cn(C)nc21 [Compound 4002] |  |  | 5.16 | 0.71 µM | 
CN1c2ccc(Cl)cc2N(c2ccccc2)C(=O)c2c[nH]nc21 [Compound 4007] |  |  | 5.11 | 0.31 µM | 
CN1c2ccc(Cl)cc2N(c2ccccc2)C(=O)c2cn(Cc3ccncc3)nc21 [Compound 4032] |  |  | 6.52 | 0.55 µM | 
CCN1c2ccc(Cl)cc2N(c2ccccc2)C(=O)c2c1ncn2C [Compound 5001] |  |  | 5.82 | 0.36 µM | 
CN1c2ccc(C(F)(F)F)cc2N(c2ccccc2)C(=O)c2c1ncn2C [Compound 5003] |  |  | 5.26 | 0.26 µM | 
CN1c2cccc(F)c2N(c2ccccc2)C(=O)c2c1ncn2C [Compound 5005] |  |  | 6.40 | 0.32 µM | 
COCCNCc1ccc(Cn2cnc3c2C(=O)N(c2ccccc2)c2cc(Cl)ccc2N3C)cc1 [Compound 5026] |  |  | 6.05 | 0.17 µM | 
CN1c2ccc(Cl)cc2N(c2ccccc2)C(=O)c2scnc21 [Compound 6001] |  |  | 5.09 | 1 µM | 
CCN1C(=O)C2(CCc3cc(-c4ccnn4C)ccc32)C(=O)N(c2ccccc2)c2cc(C(F)(F)F)ccc21 (centres unmarked) [Compound 7012] |  | 6.70 | 6.70 |  | 
CCN1C(=O)C2(CCc3c2ccc(-c2cncnc2)c3OC)C(=O)N(c2ccccc2)c2cc(C(F)(F)F)ccc21 (centres unmarked) [Compound 7030] |  | 6.77 | 6.22 |  | 
CCN1C(=O)C2(C=C(C)c3cc(O)ccc32)C(=O)N(c2ccccc2)c2cc(C(F)(F)F)ccc21 (centres unmarked) [Compound 7037] |  | 6.52 | 6.00 |  | 
